Laboratory results from US20140370541A1, “CELL CULTURE LIQUID/GAS-PHASE CHAMBER DEVICES AND RELATED METHODS, AND EXEMPLARY USE FOR MEASURING ACCUMULATION OF GAS-PHASE NITRIC OXIDE IN DIFFERENTIATED CULTURES OF NORMAL AND CYSTIC FIBROSIS AIRWAY EPITHELIAL CELLS” (UNIVERSITY OF NORTH CAROLINA, priority 2012, published 2014).
Several values for one entry are separate records, joined by “and”; a condition that tells them apart may be missing. Equal values may be shown once. Entries after “also recorded” stand apart in the source; their conditions may differ.

What was measured:
[1] = system: control human bronchial epithelial (HBE) cells; experiment: Gas-phase NO (gNO) accumulation above control HBE cultures in gas-tight liquid/gas-phase chamber; assay type: cell-based; conditions: for gas-phase level of NO: differentiated HBE, IFN-γ
Experimental: (§1) In preliminary studies, attempts were made to measure gNO release from well-differentiated cultures of HBE cells under the conditions described by Suresh et al. (21). Because some difficulties were encountered in obtaining a reproducible, gas-tight seal, both around the holes drilled in the plastic for the fittings and around the lid of the dish using parafilm, the procedure was modified in the following manner. First, 120 ml Teflon® jars (Savillex) were fitted with silicone O-rings to create a leak-proof seal. Two holes were drilled in the lid and fitted with stainless steel luer-lock adapters that were fastened tightly using stainless steel washers and nuts. The luer-lock adapters were fitted with two 3-way plastic stop-cocks to allow connections to be made to the Sievers 270B NO or other analyzers and room or zero air. Manufactured Teflon partition was inserted into the jar to hold the transwells containing cells and to separate the liquid compartment from the headspace.
(§2) For measurement of gNO production by HBE cultures, ALI media was added to each chamber. The apical surface of each culture was washed with 1 ml of PBS for 5 minutes at 37° C. to remove mucus and cell debris. Unless otherwise specified, 50 μl of PBS was added to the apical surface of the culture to provide a thin layer of ASL and allow cilia to beat freely. Three, 12 mm cultures were placed in each chamber, and the chambers were placed in a 37° C./5% CO2 incubator with the lids removed for 5 minutes to allow equilibration with incubator air. The lids were then replaced and tightened with both stop-cocks fully closed. After the appropriate incubation time, the chambers were removed from the incubator and connected to an NO analyzer. The stop-cocks were simultaneously opened to allow room air into the chamber while sample was being withdrawn into the analyzer for measurement. For these studies, NO was measured using a Sievers 280B nitric oxide analyzer with a flow rate of 40 ml/min. For the measurements of gNO production by nasal cultures the flow rate was increased to 500 ml/min. The analyzer was routinely calibrated using NO free air and nitric oxide standards, and zeroed before each experimental run. The level of NO was determined in room air and was usually <5 ppb. The analog output from the NO analyzer was directed into a MACLAB analog-digital converter and computer for data analyses and archiving. All NO measurements are reported as the peak concentration obtained during the sampling period, usually within the first 15 seconds.
(§3) Ciliated cells first become visible ˜14 days after establishment of an air-liquid interface, and the number of ciliated cells continues to increase with time so that by ˜31 days, the cultures typically consist of a multi-layered, pseudo-stratified, heavily ciliated epithelium, as illustrated in FIG. 1B. FIG. 1B is a micrograph 12 of differentiated cultures 14 consisting of a pseudo-stratified epithelium 16 stained with hematoxylin and eosin with abundant ciliated cells at the apical surface 18. To measure gas-phase NO (gNO) production, the apical surface of the cultures were washed, a small volume of PBS (50 ul) was added to wet the surface, and the cultures were incubated overnight (19-20 hours) in a gas-tight, NO inert, cell culture liquid/gas-phase chamber developed for the measurement of gNO (schematically shown in FIG. 2A).

[2] = system: CF human bronchial epithelial (HBE) cells; experiment: Gas-phase NO (gNO) accumulation above CF HBE cultures in gas-tight liquid/gas-phase chamber; assay type: cell-based
Experimental: as §1, §2
as §3, with “2A). […]” for “2A).”

[3] = system: iNOS mRNA in control (Normal) HBE cells; experiment: RT-PCR of NOS isoform RNA in control HBE cultures; assay type: cell-based, human
Experimental: To examine the effect of an inflammatory cytokine on NO production, well-differentiated cultures of normal HBE cells were treated with different concentrations of interferon-gamma (IFN-γ), a potent inducer of iNOS (7-10). Total RNA was isolated and RT-PCR was used to qualitatively assess the level of the NOS isoforms. […] To examine the effect of IFN-γ on gNO, well-differentiated cultures (mean age 128 days) of control HBE cells were treated with interferon-gamma (IFN-γ) overnight. Treatment with 100 ng/ml of IFN-γ increased the level of accumulated NO>50-fold (see FIG. 5), averaging 576+/−200 ppb (n=22; 8 donors). The IFN-γ induced increase in NO was highly significant (p=6.5×10E-6). Increased levels of iNOS RNA and gNO were observed as early as 6 hours after treatment (data not shown), and levels of NO continued to increase for at least 24 hours.

[4] = system: iNOS mRNA in cystic fibrosis (CF) HBE cells; experiment: RT-PCR of iNOS mRNA in CF HBE cultures; assay type: cell-based, human; conditions: differentiated CF HBE stimulated with IFN-γ, qualitative RT-PCR
HBE cells = experiment: Total nitrate/nitrite (NOx) in basal media; assay type: cell-based, human; conditions: cultures treated with IFN-γ
Experimental: Measurements of total nitrite/nitrate in apical and basolateral media samples were performed using the Parameter kit (R&D Systems, Minneapolis, Minn.) according to the manufacturer's instructions. Briefly, a 0.5 ml sample of media was obtained from the basolateral chamber at the conclusion of the experiment and frozen at −20° C. until analyzed. Each sample was assayed in duplicate and compared to a standard curve, which was prepared in the same ALI media used to culture the cells.
Nitric oxide present in biological fluids rapidly reacts with other molecules to produce a variety of products. In aqueous solutions, nitrite and nitrate are two of the major metabolites of NO reaction. To determine if the level of NO products in the basal media increased in a similar manner as the levels of gNO, the total amount of nitrate/nitrite (NOx) in a subset of experiments using the Griese reaction was measured. As expected, the level of nitrate/nitrite in the media was higher in cultures treated with IFN-γ than in untreated cultures, averaging 9.3+/−3.1 μM in treated cultures compared to 2.0+/−0.5 μM in untreated cultures (p=0.005; donors=7, 3). The level of NOx in the media increased proportionally to the level of gNO, with a correlation coefficient of 0.74 (y=2.33x+0.28; R^2=0.74), as shown in the chart 92 in FIG. 9. […]

[5] = undifferentiated control HBE cultures, IFN-γ treatment

Molecule | inhibition of gNO production ([1]; control HBE cells, preliminary experiment FIG. 4A, after IFN-γ treatment) | NO concentration ([1]; 6 hr incubation with 10 μL INF-γ (100 ng/ml) in HBSS medium, FIG. 4B) | gas-phase level of NO ([1]; 6 hours, 50 μL PBS) | gas-phase level of NO ([1]; 6 hours, submerged with 420 μL PBS) | gas-phase level of NO ([1]; 20 hours, 50 μL PBS) | gas-phase level of NO ([1]; 20 hours, submerged with 420 μL PBS) | fold increase of accumulated gNO over baseline ([1]; differentiated control HBE cultures, 100 ng/ml IFN-γ) | level of accumulated gNO ([1]; differentiated control HBE cultures, 100 ng/ml IFN-γ overnight (19-20 hours), 50 μl PBS apical) | fold increase in gNO [1, 5] [fold] | level of gNO [1, 5] | effect on gNO ([1]; undifferentiated cultures, IFN-γ treatment) | level of gNO ([2]; differentiated CF HBE cultures, IFN-γ 100 ng/ml, 19-20 hours) | level of gNO ([2]; differentiated CF cells stimulated with IFN-γ, submerged with 420 μl PBS) | level of gNO ([2]; differentiated CF cells stimulated with IFN-γ, submersion experiments, not submerged) | ratio of gNO, control cells versus CF cells after IFN-γ treatment ([2]; differentiated cultures treated with IFN-γ) [fold] | level of gNO ([2]; undifferentiated CF cells after stimulation with IFN-γ) | levels of nNOS and eNOS ([3]; control HBE treated with IFN-γ, RT-PCR (not shown)) | level of iNOS RNA / iNOS expression ([3]; differentiated control HBE, increasing concentrations of IFN-γ, qualitative RT-PCR) | iNOS expression [4] | level of nitrate/nitrite in the media (HBE cells) [µM]
COC(=O)[C@@H](N)CCCNC(=N)N[N+](=O)[O-] [L-NAME, reference compound] | inhibited completely |  |  |  |  |  |  |  |  |  |  |  |  |  |  |  |  |  |  | 
interferon gamma [IFN-γ] |  | marked elevation | 379+/−210 ppb | 6.6+/−5.6 ppb | 1642.5+/−31 ppb | 26.5+/−6.4 ppb | > 50 fold and ~50 fold | 576 ppb and 576+/−200 ppb and > 500 ppb | ~2 | 9.5+/−3.3 ppb and ~10 ppb | no significant effect | 192 ppb and 192.3+/−68.9 ppb | 11+/−4.3 ppb | 98+/−35 ppb | 3 | 15.6+/−6.8 ppb | relatively unchanged | induced iNOS expression; also recorded: clear increase | increase in iNOS expression | 9.3 ± 3.1
